From ChEMBL document CHEMBL3421607, “Design, synthesis and antibacterial activity of cinnamaldehyde derivatives as inhibitors of the bacterial cell division protein FtsZ” (Eur J Med Chem, 2015)
Converted amounts (≈) assume the structure as drawn.

Test system: Staphylococcus aureus
Test: Antibacterial activity against penicillin-resistant Staphylococcus aureus clinical isolates after 24 hrs by broth microdilution method
Assay type: functional
Details: not given

Q: How did the MIC turn out when `CCN(CC)C(=O)/C=C/c1ccc(OC)c(OC)c1` was run?
A: Its MIC is greater than 128 µg/mL.

Q: With `CCCCNC(=O)/C=C/c1ccc([N+](=O)[O-])cc1` as the compound, how does the MIC read?
A: The MIC was greater than 128 µg/mL.

Q: With `COc1cc(/C=C/C(=O)CC(=O)/C=C/c2ccc(O)c(OC)c2)ccc1O` [CURCUMIN] as the compound, how does the MIC read?
A: Its MIC is greater than 128 µg/mL.

Q: Which MIC does the source give for `C#CCNC(=O)/C=C/c1ccc(OC)c(OC)c1` here?
A: The MIC was greater than 128 µg/mL.

Q: How did the MIC turn out when `CCCCNC(=O)/C=C/c1ccc(OC)c(OC)c1` was run?
A: The MIC was greater than 128 µg/mL.

Q: How did the MIC turn out when `CC(C)NC(=O)/C=C/c1ccc([N+](=O)[O-])cc1` was run?
A: The MIC was greater than 128 µg/mL.

Test system: Streptococcus pyogenes
Test: Antibacterial activity against penicillin-susceptible Streptococcus pyogenes clinical isolates after 24 hrs by broth microdilution method
Assay type: functional
Details: not given

Q: With `CCN(CC)C(=O)/C=C/c1ccc(OC)c(OC)c1` as the compound, how does the MIC read?
A: Its MIC is greater than 128 µg/mL.

Q: For `COc1cc(/C=C/C(=O)CC(=O)/C=C/c2ccc(O)c(OC)c2)ccc1O` [CURCUMIN], which MIC is on record?
A: Its MIC is greater than 128 µg/mL.

Test system: Pseudomonas aeruginosa
Test: microbe, parasite or virus in culture
Assay type: functional
Details: ATCC 27853, 5 h
Description: Inhibition of cell division in penicillin-susceptible Pseudomonas aeruginosa ATCC 27853 assessed as filamentation after 5 hrs by phase contrast microscopy

Q: For `CCN(CC)C(=O)/C=C/c1ccc(OC)c(OC)c1`, which MIC is on record?
A: The MIC was 128 µg/mL (≈ 486 µM).

Q: For `CCCCNC(=O)/C=C/c1ccc([N+](=O)[O-])cc1`, which MIC is on record?
A: Its MIC is greater than 128 µg/mL.

Q: Which MIC does the source give for `C#CCNC(=O)/C=C/c1ccc(OC)c(OC)c1` here?
A: Its MIC is greater than 128 µg/mL.

Q: For `CCCCNC(=O)/C=C/c1ccc(OC)c(OC)c1`, which MIC is on record?
A: The MIC was greater than 128 µg/mL.

Q: For `CC(C)NC(=O)/C=C/c1ccc([N+](=O)[O-])cc1`, which MIC is on record?
A: The MIC was greater than 128 µg/mL.

Test system: Staphylococcus aureus
Test: microbe, parasite or virus in culture
Assay type: functional
Details: ATCC 25923, 24 h
Description: Antibacterial activity against penicillin-susceptible Staphylococcus aureus ATCC 25923 after 24 hrs by broth microdilution method

Q: How did the MIC turn out when `CCN(CC)C(=O)/C=C/c1ccc(OC)c(OC)c1` was run?
A: Its MIC is greater than 128 µg/mL.

Q: Which MIC does the source give for `CCCCNC(=O)/C=C/c1ccc([N+](=O)[O-])cc1` here?
A: The MIC was greater than 128 µg/mL.

Q: Which MIC does the source give for `COc1cc(/C=C/C(=O)CC(=O)/C=C/c2ccc(O)c(OC)c2)ccc1O` [CURCUMIN] here?
A: The MIC was greater than 128 µg/mL.

Q: How did the MIC turn out when `C#CCNC(=O)/C=C/c1ccc(OC)c(OC)c1` was run?
A: Its MIC is greater than 128 µg/mL.

Q: `CCCCNC(=O)/C=C/c1ccc(OC)c(OC)c1` was tested. Which MIC did it give?
A: Its MIC is greater than 128 µg/mL.

Q: For `CC(C)NC(=O)/C=C/c1ccc([N+](=O)[O-])cc1`, which MIC is on record?
A: The MIC was greater than 128 µg/mL.

Test system: Bacillus subtilis
Test: microbe, parasite or virus in culture
Assay type: functional
Details: ATCC 9372, 5 h
Description: Inhibition of cell division in penicillin-susceptible Bacillus subtilis ATCC 9372 assessed as filamentation after 5 hrs by phase contrast microscopy

Q: How did the MIC turn out when `CCN(CC)C(=O)/C=C/c1ccc(OC)c(OC)c1` was run?
A: The MIC was 128 µg/mL (≈ 486 µM).

Q: `CCCCNC(=O)/C=C/c1ccc([N+](=O)[O-])cc1` was tested. Which MIC did it give?
A: Its MIC is greater than 128 µg/mL.

Q: How did the MIC turn out when `COc1cc(/C=C/C(=O)CC(=O)/C=C/c2ccc(O)c(OC)c2)ccc1O` [CURCUMIN] was run?
A: The MIC was 16 µg/mL (≈ 43.4 µM).

Q: With `C#CCNC(=O)/C=C/c1ccc(OC)c(OC)c1` as the compound, how does the MIC read?
A: Its MIC is greater than 128 µg/mL.

Q: Which MIC does the source give for `CCCCNC(=O)/C=C/c1ccc(OC)c(OC)c1` here?
A: Its MIC is greater than 128 µg/mL.

Q: Which MIC does the source give for `CC(C)NC(=O)/C=C/c1ccc([N+](=O)[O-])cc1` here?
A: Its MIC is greater than 128 µg/mL.

Test system: Pseudomonas aeruginosa
Test: microbe, parasite or virus in culture
Assay type: functional
Details: ATCC 27853, 24 h
Description: Antibacterial activity against penicillin-susceptible Pseudomonas aeruginosa ATCC 27853 after 24 hrs by broth microdilution method

Q: With `CCN(CC)C(=O)/C=C/c1ccc(OC)c(OC)c1` as the compound, how does the MIC read?
A: Its MIC is greater than 128 µg/mL.

Q: For `CCCCNC(=O)/C=C/c1ccc([N+](=O)[O-])cc1`, which MIC is on record?
A: The MIC was greater than 128 µg/mL.

Q: For `COc1cc(/C=C/C(=O)CC(=O)/C=C/c2ccc(O)c(OC)c2)ccc1O` [CURCUMIN], which MIC is on record?
A: Its MIC is greater than 128 µg/mL.

Q: `C#CCNC(=O)/C=C/c1ccc(OC)c(OC)c1` was tested. Which MIC did it give?
A: The MIC was greater than 128 µg/mL.

Q: `CCCCNC(=O)/C=C/c1ccc(OC)c(OC)c1` was tested. Which MIC did it give?
A: Its MIC is greater than 128 µg/mL.

Q: How did the MIC turn out when `CC(C)NC(=O)/C=C/c1ccc([N+](=O)[O-])cc1` was run?
A: The MIC was greater than 128 µg/mL.

Test system: Staphylococcus aureus
Test: microbe, parasite or virus in culture
Assay type: functional
Details: ATCC 29213, 24 h
Description: Antibacterial activity against methicillin-resistant Staphylococcus aureus ATCC 29213 after 24 hrs by broth microdilution method

Q: `CCN(CC)C(=O)/C=C/c1ccc(OC)c(OC)c1` was tested. Which MIC did it give?
A: The MIC was greater than 128 µg/mL.

Q: With `CCCCNC(=O)/C=C/c1ccc([N+](=O)[O-])cc1` as the compound, how does the MIC read?
A: The MIC was greater than 128 µg/mL.

Q: Which MIC does the source give for `COc1cc(/C=C/C(=O)CC(=O)/C=C/c2ccc(O)c(OC)c2)ccc1O` [CURCUMIN] here?
A: Its MIC is greater than 128 µg/mL.

Q: How did the MIC turn out when `C#CCNC(=O)/C=C/c1ccc(OC)c(OC)c1` was run?
A: The MIC was greater than 128 µg/mL.

Q: How did the MIC turn out when `CCCCNC(=O)/C=C/c1ccc(OC)c(OC)c1` was run?
A: The MIC was greater than 128 µg/mL.

Q: Which MIC does the source give for `CC(C)NC(=O)/C=C/c1ccc([N+](=O)[O-])cc1` here?
A: Its MIC is greater than 128 µg/mL.

Test system: Bacillus subtilis
Test: microbe, parasite or virus in culture
Assay type: functional
Details: ATCC 9372, 24 h
Description: Antibacterial activity against penicillin-susceptible Bacillus subtilis ATCC 9372 after 24 hrs by broth microdilution method

Q: How did the MIC turn out when `CCN(CC)C(=O)/C=C/c1ccc(OC)c(OC)c1` was run?
A: Its MIC is 128 µg/mL (≈ 486 µM).

Q: Which MIC does the source give for `CCCCNC(=O)/C=C/c1ccc([N+](=O)[O-])cc1` here?
A: The MIC was greater than 128 µg/mL.

Q: With `COc1cc(/C=C/C(=O)CC(=O)/C=C/c2ccc(O)c(OC)c2)ccc1O` [CURCUMIN] as the compound, how does the MIC read?
A: The MIC was 32 µg/mL (≈ 86.9 µM).

Q: With `C#CCNC(=O)/C=C/c1ccc(OC)c(OC)c1` as the compound, how does the MIC read?
A: Its MIC is greater than 128 µg/mL.

Q: Which MIC does the source give for `CCCCNC(=O)/C=C/c1ccc(OC)c(OC)c1` here?
A: Its MIC is greater than 128 µg/mL.

Q: With `CC(C)NC(=O)/C=C/c1ccc([N+](=O)[O-])cc1` as the compound, how does the MIC read?
A: Its MIC is greater than 128 µg/mL.

Test system: Escherichia coli
Test: microbe, parasite or virus in culture
Assay type: functional
Details: ATCC 25922, 24 h
Description: Antibacterial activity against penicillin-susceptible Escherichia coli ATCC 25922 after 24 hrs by broth microdilution method

Q: For `CCN(CC)C(=O)/C=C/c1ccc(OC)c(OC)c1`, which MIC is on record?
A: Its MIC is 128 µg/mL (≈ 486 µM).

Q: Which MIC does the source give for `CCCCNC(=O)/C=C/c1ccc([N+](=O)[O-])cc1` here?
A: The MIC was greater than 128 µg/mL.

Q: How did the MIC turn out when `COc1cc(/C=C/C(=O)CC(=O)/C=C/c2ccc(O)c(OC)c2)ccc1O` [CURCUMIN] was run?
A: Its MIC is greater than 128 µg/mL.

Q: Which MIC does the source give for `C#CCNC(=O)/C=C/c1ccc(OC)c(OC)c1` here?
A: Its MIC is greater than 128 µg/mL.

Q: How did the MIC turn out when `CCCCNC(=O)/C=C/c1ccc(OC)c(OC)c1` was run?
A: The MIC was greater than 128 µg/mL.

Q: For `CC(C)NC(=O)/C=C/c1ccc([N+](=O)[O-])cc1`, which MIC is on record?
A: Its MIC is greater than 128 µg/mL.

Test system: Escherichia coli
Test: microbe, parasite or virus in culture
Assay type: functional
Details: ATCC 25922, 5 h
Description: Inhibition of cell division in penicillin-susceptible Escherichia coli ATCC 25922 assessed as filamentation after 5 hrs by phase contrast microscopy

Q: How did the MIC turn out when `CCN(CC)C(=O)/C=C/c1ccc(OC)c(OC)c1` was run?
A: Its MIC is 128 µg/mL (≈ 486 µM).

Q: Which MIC does the source give for `CCCCNC(=O)/C=C/c1ccc([N+](=O)[O-])cc1` here?
A: Its MIC is greater than 128 µg/mL.

Q: With `COc1cc(/C=C/C(=O)CC(=O)/C=C/c2ccc(O)c(OC)c2)ccc1O` [CURCUMIN] as the compound, how does the MIC read?
A: Its MIC is greater than 128 µg/mL.

Q: How did the MIC turn out when `C#CCNC(=O)/C=C/c1ccc(OC)c(OC)c1` was run?
A: Its MIC is greater than 128 µg/mL.

Q: Which MIC does the source give for `CCCCNC(=O)/C=C/c1ccc(OC)c(OC)c1` here?
A: The MIC was greater than 128 µg/mL.

Q: How did the MIC turn out when `CC(C)NC(=O)/C=C/c1ccc([N+](=O)[O-])cc1` was run?
A: Its MIC is greater than 128 µg/mL.

Test system: Staphylococcus epidermidis
Test: Antibacterial activity against penicillin-resistant Staphylococcus epidermidis clinical isolates after 24 hrs by broth microdilution method
Assay type: functional
Details: not given

Q: How did the MIC turn out when `CCN(CC)C(=O)/C=C/c1ccc(OC)c(OC)c1` was run?
A: Its MIC is greater than 128 µg/mL.

Test system: Staphylococcus aureus
Test: microbe, parasite or virus in culture
Assay type: functional
Details: ATCC 25923, 5 h
Description: Inhibition of cell division in penicillin-susceptible Staphylococcus aureus ATCC 25923 assessed as ballooning after 5 hrs by phase contrast microscopy

Q: How did the MIC turn out when `CCN(CC)C(=O)/C=C/c1ccc(OC)c(OC)c1` was run?
A: Its MIC is 64 µg/mL (≈ 243 µM).

Q: With `CCCCNC(=O)/C=C/c1ccc([N+](=O)[O-])cc1` as the compound, how does the MIC read?
A: The MIC was greater than 128 µg/mL.

Q: `COc1cc(/C=C/C(=O)CC(=O)/C=C/c2ccc(O)c(OC)c2)ccc1O` [CURCUMIN] was tested. Which MIC did it give?
A: Its MIC is greater than 128 µg/mL.

Q: For `C#CCNC(=O)/C=C/c1ccc(OC)c(OC)c1`, which MIC is on record?
A: The MIC was greater than 128 µg/mL.

Q: Which MIC does the source give for `CCCCNC(=O)/C=C/c1ccc(OC)c(OC)c1` here?
A: Its MIC is greater than 128 µg/mL.

Q: For `CC(C)NC(=O)/C=C/c1ccc([N+](=O)[O-])cc1`, which MIC is on record?
A: Its MIC is greater than 128 µg/mL.
